# Source: US20240226288A1, “TRANSPLANT MATERIAL AND KIDNEY TRANSPLANT KIT” (THE JIKEI UNIVERSITY, priority 2021, published 2024)
# Test: Monitoring of recipient monkeys by blood test during immunosuppressant administration
# Format: in vivo, cynomolgus monkey
# Conditions: blood test after start of administration
# Method: Regarding the start day, the day of transplantation is represented by (0), and the preceding days are represented by the minus sign (−). Specifically, in the therapy, tacrolimus (0.02 mg/kg im×2/day; day −9 from start day), abatacept (50 mg/kg iv×1/week; day 7 from start day), and mycophenolate mofetil (40 mg/kg po×2/day; day −5 from start day) were used. The administration of methylprednisolone (10 mg/kg iv) was also carried out from day 0 from the start day, which was changed to oral administration (5 mg/kg) from the next day. […] Furthermore, thymoglobulin (10 mg/kg iv on day 3), rituximab (10 mg/kg iv on day 2), tocilizumab (10 mg/kg sc on day −1, 7, and 14), and etanercept (0.5 mg/kg sc on day 0, 3, 6, and 10) were administered. The concentrations of tacrolimus and mycophenolate mofetil in blood were measured twice a week, and the dose was appropriately adjusted based on the target trough level (TAC trough level: 15 to 20 ng/mL on day −9 to 2; 9 to 12 ng/ml from day 3, MMF trough level: 4 to 6 μg/mL).
# The daily dietary status and activity of the recipient monkeys were monitored, and support was provided through supplementation as needed. Furthermore, the systemic condition of the monkeys was evaluated by the measurement of body weight. body temperature, and SpO2 as well as blood sampling conducted twice a week. […]
compound,measurement,value
"COc1c(C)c2c(c(O)c1C/C=C(\C)CCC(=O)OCCN1CCOCC1)C(=O)OC2 [MMF, Mycophenolate mofetil]",absorption,confirmed
